Where two headings read alike, the source gives them in different places. Peptide text beside a SMILES is read from it.

Assay [1] deals with T1, human GLP‐2R (Homo sapiens, UniProt O95838).
T1 sequence (O95838 1-553): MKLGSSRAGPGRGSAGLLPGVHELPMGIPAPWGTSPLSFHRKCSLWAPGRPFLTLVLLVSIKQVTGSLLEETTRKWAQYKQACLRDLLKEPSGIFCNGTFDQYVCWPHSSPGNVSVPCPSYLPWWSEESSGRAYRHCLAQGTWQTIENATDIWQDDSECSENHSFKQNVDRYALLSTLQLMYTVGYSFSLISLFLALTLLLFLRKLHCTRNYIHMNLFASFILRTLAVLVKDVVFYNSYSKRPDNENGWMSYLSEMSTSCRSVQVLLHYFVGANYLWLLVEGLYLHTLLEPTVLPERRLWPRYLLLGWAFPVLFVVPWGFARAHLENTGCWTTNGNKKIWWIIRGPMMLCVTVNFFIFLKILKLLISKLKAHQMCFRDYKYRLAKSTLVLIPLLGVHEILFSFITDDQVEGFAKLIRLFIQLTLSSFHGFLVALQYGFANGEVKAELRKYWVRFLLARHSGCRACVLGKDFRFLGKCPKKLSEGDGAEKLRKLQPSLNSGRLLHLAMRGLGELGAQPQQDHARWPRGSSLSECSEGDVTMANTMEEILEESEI
In words: cAMP accumulation, agonism (HitHunter cAMP assay). The settings on record: for Emax: COS-7, read-out: cAMP activation Emax ± SEM; for cAMP activation Log EC50 ± SEM / cAMP activation EC50: COS‐7 cells, human GLP‐2R, 30 min at 37°C, n = 3 in duplicate; for cAMP activation Log EC50 ± SEM: mean ± SEM.

Assay [2] concerns the target T1, human GLP‐2R. In words: cell-based. To be noted: SEM.
Description: After incubation, the cells were washed twice in 400 μl per well ice‐cold binding buffer and lysed using 500 μl per well of 200 mM NaOH with 1% SDS for 30 min. The samples were counted using the Wizard Gamma Counter (PerkinElmer, Waltham, MA).
Statistical significance was accepted at P < 0.05.
The target of assay [3] is T1, human GLP‐2R. In words: cAMP accumulation, inhibition of GLP‐2‐induced activation. To be noted: for cAMP inhibition Log IC50 ± SEM / cAMP inhibition IC50: COS‐7 cells, human GLP‐2R, n = 3 in duplicate; for cAMP inhibition Log IC50 ± SEM: 10 min preincubation with antagonist, then GLP‐2 for 20 min, mean ± SEM; for cAMP inhibition IC50: inhibition of GLP‐2‐induced cAMP; for IC50: SEM. For orientation: Changes in cAMP serve as a functional read-out for many G protein-coupled receptors.

By Emax is commonly meant the size of the effect at its maximum, as opposed to the concentration needed. In general, EC50 refers to the concentration needed to bring the measured effect to its halfway point. A high value points to a less potent agent. One may read the IC50 as the concentration at which inhibition is half-maximal. With `CC[C@H](C)[C@H](NC(=O)[C@H](Cc1ccccc1)NC(=O)[C@H](CC(=O)O)NC(=O)[C@H](CCCNC(=N)N)NC(=O)[C@H](C)NC(=O)[C@H](C)NC(=O)[C@H](CC(C)C)NC(=O)[C@H](CC(N)=O)NC(=O)[C@H](CC(=O)O)NC(=O)[C@H](CC(C)C)NC(=O)[C@@H](NC(=O)[C@@H](NC(=O)[C@H](CC(N)=O)NC(=O)[C@H](CCSC)NC(=O)[C@H](CCC(=O)O)NC(=O)[C@@H](N)CC(=O)O)[C@@H](C)O)[C@@H](C)CC)C(=O)N[C@@H](CC(N)=O)C(=O)N[C@@H](Cc1c[nH]c2ccccc12)C(=O)N[C@@H](CC(C)C)C(=O)N[C@H](C(=O)N[C@@H](CCC(N)=O)C(=O)N[C@H](C(=O)N[C@@H](CCCCN)C(=O)N[C@H](C(=O)N[C@H](C(=O)N[C@@H](CC(=O)O)C(=O)O)[C@@H](C)O)[C@@H](C)CC)[C@@H](C)O)[C@@H](C)CC` [GLP‐2(8‐33)] (H-DEMNTILDNLAARDFINWLIQTKITD-OH), at human GLP‐2R [1] (SEM), the maximum response (Emax) amounted to 19 ± 3% and the concentration giving a half-maximal response (EC50) is 63.1 nM. In addition, the IC50 against human GLP‐2R [2] was 79.4 nM. Moreover, on human GLP‐2R [3], the “cAMP inhibition Log IC50 ± SEM” value is given as “No inhibition” and the “cAMP inhibition IC50” value is “No inhibition”.
`CC[C@H](C)[C@H](NC(=O)[C@H](Cc1ccccc1)NC(=O)[C@H](CC(=O)O)NC(=O)[C@H](CCCNC(=N)N)NC(=O)[C@H](C)NC(=O)[C@H](C)NC(=O)[C@H](CC(C)C)NC(=O)[C@H](CC(N)=O)NC(=O)[C@H](CC(=O)O)NC(=O)[C@H](CC(C)C)NC(=O)[C@@H](NC(=O)[C@@H](NC(=O)[C@@H](N)CC(N)=O)[C@@H](C)O)[C@@H](C)CC)C(=O)N[C@@H](CC(N)=O)C(=O)N[C@@H](Cc1c[nH]c2ccccc12)C(=O)N[C@@H](CC(C)C)C(=O)N[C@H](C(=O)N[C@@H](CCC(N)=O)C(=O)N[C@H](C(=O)N[C@@H](CCCCN)C(=O)N[C@H](C(=O)N[C@H](C(=O)N[C@@H](CC(=O)O)C(=O)O)[C@@H](C)O)[C@@H](C)CC)[C@@H](C)O)[C@@H](C)CC` [GLP‐2(11‐33)] (H-NTILDNLAARDFINWLIQTKITD-OH): at human GLP‐2R [1], the “cAMP activation Log EC50 ± SEM” value was “No activation” and the “cAMP activation EC50” value was “No activation”. The midpoint of inhibition at human GLP‐2R [2], the IC50, lay at 794 nM. Besides, on human GLP‐2R [3], the “cAMP inhibition Log IC50 ± SEM” value is “No inhibition” and the “cAMP inhibition IC50” value is given as “No inhibition”.
Take `CC[C@H](C)[C@H](NC(=O)[C@H](Cc1ccccc1)NC(=O)[C@H](CC(=O)O)NC(=O)[C@H](CCCNC(=N)N)NC(=O)[C@H](C)NC(=O)[C@H](C)NC(=O)[C@H](CC(C)C)NC(=O)[C@H](CC(N)=O)NC(=O)[C@H](CC(=O)O)NC(=O)[C@H](CC(C)C)NC(=O)[C@@H](NC(=O)[C@@H](NC(=O)[C@H](CC(N)=O)NC(=O)[C@H](CCSC)NC(=O)[C@H](CCC(=O)O)NC(=O)[C@H](CC(=O)O)NC(=O)[C@H](CO)NC(=O)[C@@H](N)Cc1ccccc1)[C@@H](C)O)[C@@H](C)CC)C(=O)N[C@@H](CC(N)=O)C(=O)N[C@@H](Cc1c[nH]c2ccccc12)C(=O)N[C@@H](CC(C)C)C(=O)N[C@H](C(=O)N[C@@H](CCC(N)=O)C(=O)N[C@H](C(=O)N[C@@H](CCCCN)C(=O)N[C@H](C(=O)N[C@H](C(=O)N[C@@H](CC(=O)O)C(=O)O)[C@@H](C)O)[C@@H](C)CC)[C@@H](C)O)[C@@H](C)CC` [GLP‐2(6‐33)] (H-FSDEMNTILDNLAARDFINWLIQTKITD-OH): on human GLP‐2R [1] (SEM), the Emax was found to be 46 ± 5.1% and the half-maximal effective concentration (EC50) was 39.8 nM. For the same compound, the IC50 at human GLP‐2R [2] is 31.6 nM. Moreover, the IC50 against human GLP‐2R [3] was 501 nM.
In the case of `CC[C@H](C)[C@H](NC(=O)[C@H](Cc1ccccc1)NC(=O)[C@H](CC(=O)O)NC(=O)[C@H](CCCNC(=N)N)NC(=O)[C@H](C)NC(=O)[C@H](C)NC(=O)[C@H](CC(C)C)NC(=O)[C@H](CC(N)=O)NC(=O)[C@H](CC(=O)O)NC(=O)[C@H](CC(C)C)NC(=O)[C@@H](NC(=O)[C@@H](NC(=O)[C@H](CC(N)=O)NC(=O)[C@H](CCSC)NC(=O)[C@@H](N)CCC(=O)O)[C@@H](C)O)[C@@H](C)CC)C(=O)N[C@@H](CC(N)=O)C(=O)N[C@@H](Cc1c[nH]c2ccccc12)C(=O)N[C@@H](CC(C)C)C(=O)N[C@H](C(=O)N[C@@H](CCC(N)=O)C(=O)N[C@H](C(=O)N[C@@H](CCCCN)C(=O)N[C@H](C(=O)N[C@H](C(=O)N[C@@H](CC(=O)O)C(=O)O)[C@@H](C)O)[C@@H](C)CC)[C@@H](C)O)[C@@H](C)CC` [GLP‐2(9‐33)] (H-EMNTILDNLAARDFINWLIQTKITD-OH), at human GLP‐2R [1] (SEM), the maximal effect (Emax) stood at 65 ± 3.6% and the concentration giving a half-maximal response (EC50) is 200 nM. For the same compound, 79.4 nM corresponded to half-maximal inhibition at human GLP‐2R [2] (IC50). Besides, on human GLP‐2R [3], the “cAMP inhibition Log IC50 ± SEM” value is given as “No inhibition” and the “cAMP inhibition IC50” value is “No inhibition”.
On to `CC[C@H](C)[C@H](NC(=O)[C@H](Cc1ccccc1)NC(=O)[C@H](CC(=O)O)NC(=O)[C@H](CCCNC(=N)N)NC(=O)[C@H](C)NC(=O)[C@H](C)NC(=O)[C@H](CC(C)C)NC(=O)[C@H](CC(N)=O)NC(=O)[C@H](CC(=O)O)NC(=O)[C@H](CC(C)C)NC(=O)[C@@H](NC(=O)[C@@H](NC(=O)[C@H](CC(N)=O)NC(=O)[C@H](CCSC)NC(=O)[C@H](CCC(=O)O)NC(=O)[C@H](CC(=O)O)NC(=O)[C@H](CO)NC(=O)[C@H](Cc1ccccc1)NC(=O)[C@@H](N)CO)[C@@H](C)O)[C@@H](C)CC)C(=O)N[C@@H](CC(N)=O)C(=O)N[C@@H](Cc1c[nH]c2ccccc12)C(=O)N[C@@H](CC(C)C)C(=O)N[C@H](C(=O)N[C@@H](CCC(N)=O)C(=O)N[C@H](C(=O)N[C@@H](CCCCN)C(=O)N[C@H](C(=O)N[C@H](C(=O)N[C@@H](CC(=O)O)C(=O)O)[C@@H](C)O)[C@@H](C)CC)[C@@H](C)O)[C@@H](C)CC` [GLP‐2(5‐33)] (H-SFSDEMNTILDNLAARDFINWLIQTKITD-OH), for which, at human GLP‐2R [1] (SEM), the Emax was 40 ± 4.1% and the EC50 was 25.1 nM. The IC50 at human GLP‐2R [2] is 12.6 nM. Besides, the IC50 at human GLP‐2R [3] was 200 nM.
With `CC[C@H](C)[C@H](NC(=O)[C@H](Cc1ccccc1)NC(=O)[C@H](CC(=O)O)NC(=O)[C@H](CCCNC(=N)N)NC(=O)[C@H](C)NC(=O)[C@H](C)NC(=O)[C@H](CC(C)C)NC(=O)[C@H](CC(N)=O)NC(=O)[C@H](CC(=O)O)NC(=O)[C@H](CC(C)C)NC(=O)[C@@H](NC(=O)[C@@H](NC(=O)[C@H](CC(N)=O)NC(=O)[C@@H](N)CCSC)[C@@H](C)O)[C@@H](C)CC)C(=O)N[C@@H](CC(N)=O)C(=O)N[C@@H](Cc1c[nH]c2ccccc12)C(=O)N[C@@H](CC(C)C)C(=O)N[C@H](C(=O)N[C@@H](CCC(N)=O)C(=O)N[C@H](C(=O)N[C@@H](CCCCN)C(=O)N[C@H](C(=O)N[C@H](C(=O)N[C@@H](CC(=O)O)C(=O)O)[C@@H](C)O)[C@@H](C)CC)[C@@H](C)O)[C@@H](C)CC` [GLP‐2(10‐33)] (H-MNTILDNLAARDFINWLIQTKITD-OH), on human GLP‐2R [1], the “cAMP activation Log EC50 ± SEM” value is recorded as “No activation” and the “cAMP activation EC50” value was “No activation”. At human GLP‐2R [2], this compound gave an IC50 of 126 nM. Besides, on human GLP‐2R [3], the IC50 is 407 nM.
Regarding `CC[C@H](C)[C@H](NC(=O)[C@H](Cc1ccccc1)NC(=O)[C@H](CC(=O)O)NC(=O)[C@H](CCCNC(=N)N)NC(=O)[C@H](C)NC(=O)[C@H](C)NC(=O)[C@H](CC(C)C)NC(=O)[C@H](CC(N)=O)NC(=O)[C@H](CC(=O)O)NC(=O)[C@H](CC(C)C)NC(=O)[C@@H](NC(=O)[C@@H](NC(=O)[C@H](CC(N)=O)NC(=O)[C@H](CCSC)NC(=O)[C@H](CCC(=O)O)NC(=O)[C@H](CC(=O)O)NC(=O)[C@@H](N)CO)[C@@H](C)O)[C@@H](C)CC)C(=O)N[C@@H](CC(N)=O)C(=O)N[C@@H](Cc1c[nH]c2ccccc12)C(=O)N[C@@H](CC(C)C)C(=O)N[C@H](C(=O)N[C@@H](CCC(N)=O)C(=O)N[C@H](C(=O)N[C@@H](CCCCN)C(=O)N[C@H](C(=O)N[C@H](C(=O)N[C@@H](CC(=O)O)C(=O)O)[C@@H](C)O)[C@@H](C)CC)[C@@H](C)O)[C@@H](C)CC` [GLP‐2(7‐33)] (H-SDEMNTILDNLAARDFINWLIQTKITD-OH), on human GLP‐2R [1], the EC50 was found to be 126 nM. At human GLP‐2R [1] (SEM), the Emax is 27 ± 3.8%. The compound also had a concentration for half-maximal inhibition (IC50) on human GLP‐2R [2] of 20 nM. In addition, on human GLP‐2R [3], the “cAMP inhibition Log IC50 ± SEM” value is reported as “No inhibition” and the “cAMP inhibition IC50” value is given as “No inhibition”.

The values above are taken from article PMC9541843, “N‐terminal alterations turn the gut hormone GLP‐2 into an antagonist with gradual loss of GLP‐2 receptor selectivity towards more GLP‐1 receptor interaction” (British Journal of Pharmacology, 2022).
